Measured values: ChEMBL document CHEMBL1201862, “PubChem BioAssay data set” (2004)
Activity calls are given as the source filed them.

Columns and labels:
[1] = viability of uninfected HEp-2 cells – cell-based, HTS, cytotoxicity control for RSV inhibitor project, dose response (AID 2410); assay type: functional; settings: human respiratory syncytial virus
[2] = CMV-driven luciferase expression suppression in HEK293 – cell-based, luminescence, dry powder, counter-screen for Pax8 inhibitor project, dose response (AID 743020); assay type: functional
[3] = rescue of ΔF508 CFTR function, airway epithelium – human bronchial epithelial cells, plate reader, cherry-pick, two tests, dose response (AID 743267); assay type: functional, cell-based
[4] = biological target: Eukaryotic translation initiation factor 4E (Mus musculus, UniProt P63073); assay: blockers of eIF4G binding by eIF4E – biochemical, TR-FRET, dose response (AID 855); assay type: functional;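 further: potency for disrupting eIF4E binding to eIF4GI seen as loss of FRET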
Chain of Eukaryotic translation initiation factor 4E (P63073 whole entry): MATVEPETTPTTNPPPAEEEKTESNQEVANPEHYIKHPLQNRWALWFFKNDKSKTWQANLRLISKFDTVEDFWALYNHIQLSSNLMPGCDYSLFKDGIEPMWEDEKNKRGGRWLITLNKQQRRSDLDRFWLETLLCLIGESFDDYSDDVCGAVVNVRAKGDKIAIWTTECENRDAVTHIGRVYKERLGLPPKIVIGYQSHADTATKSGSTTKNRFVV

[5] = reduced cellular PGC1a acetyl-lysine signal – cell-based, cherry-picked samples, dose response (AID 720514); assay type: functional;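 further: potency may reflect raised or lowered acetylation signal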
[6] = biological target: T1, Estrogen receptor (Homo sapiens, UniProt P03372);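 further: potency for inhibiting coactivator peptide recruitment to the receptor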
T1 sequence (P03372 whole entry): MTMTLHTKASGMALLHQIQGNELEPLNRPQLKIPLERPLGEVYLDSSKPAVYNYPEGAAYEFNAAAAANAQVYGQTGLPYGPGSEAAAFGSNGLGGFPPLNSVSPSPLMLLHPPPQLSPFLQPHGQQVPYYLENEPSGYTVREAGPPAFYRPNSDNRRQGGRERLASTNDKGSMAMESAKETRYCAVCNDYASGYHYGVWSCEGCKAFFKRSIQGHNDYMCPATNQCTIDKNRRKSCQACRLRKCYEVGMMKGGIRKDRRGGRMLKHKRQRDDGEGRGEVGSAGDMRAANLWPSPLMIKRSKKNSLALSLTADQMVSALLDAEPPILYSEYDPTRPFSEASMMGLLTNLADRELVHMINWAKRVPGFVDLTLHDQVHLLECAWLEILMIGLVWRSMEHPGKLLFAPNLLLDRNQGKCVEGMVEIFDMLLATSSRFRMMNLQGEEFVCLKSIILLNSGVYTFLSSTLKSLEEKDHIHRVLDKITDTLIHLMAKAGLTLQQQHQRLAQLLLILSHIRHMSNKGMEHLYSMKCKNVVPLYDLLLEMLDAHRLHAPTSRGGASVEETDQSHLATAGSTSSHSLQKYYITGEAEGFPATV

[7] = viability loss in CEM21 cells – cell-based, plate reader, dry powder, cytotoxicity control, dose response (AID 687026); assay type: functional
[8] = blockers of HIV-1 envelope-mediated cell-cell fusion – cherry-pick, dose response (AID 652057); assay type: functional, cell-based
[9] = NIH3T3 cell viability loss – ATP luminescence, mouse fibroblasts, counter-screen, dose response (AID 2010); assay type: functional, cell-based;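 further: cells exposed to compound for about 90 hours before reading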
[10] = Trypanosoma cruzi growth suppression in host cells – NIH3T3 host cells, beta-gal luminescence, confirmation (AID 2044); assay type: functional, cell-based;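 further: intracellular parasites grown in NIH/3T3 mouse fibroblasts as host cells; luminescent beta-galactosidase reporter signal from transgenic T. cruzi replicating inside host cells; inhibitors lower the luminescence signal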
[11] = blockers of HIV-1 ZM109 envelope-driven cell-cell fusion – HeLa effector, CEM target cells, luciferase, cherry-pick, dose response (AID 652058); assay type: functional, cell-based;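 further: luciferase signal from HIV-1 Env mediated cell-cell fusion of effector and target cells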
[12] = biological target: Tyrosine-protein phosphatase non-receptor type 11 (Homo sapiens, UniProt Q06124); assay: PTPN11 enzyme inhibitors – biochemical, selectivity assay for STEP inhibitor project, dose response (AID 602367); assay type: functional; settings: read-out: IC50_Mean
Chain of Tyrosine-protein phosphatase non-receptor type 11 (Q06124 whole entry): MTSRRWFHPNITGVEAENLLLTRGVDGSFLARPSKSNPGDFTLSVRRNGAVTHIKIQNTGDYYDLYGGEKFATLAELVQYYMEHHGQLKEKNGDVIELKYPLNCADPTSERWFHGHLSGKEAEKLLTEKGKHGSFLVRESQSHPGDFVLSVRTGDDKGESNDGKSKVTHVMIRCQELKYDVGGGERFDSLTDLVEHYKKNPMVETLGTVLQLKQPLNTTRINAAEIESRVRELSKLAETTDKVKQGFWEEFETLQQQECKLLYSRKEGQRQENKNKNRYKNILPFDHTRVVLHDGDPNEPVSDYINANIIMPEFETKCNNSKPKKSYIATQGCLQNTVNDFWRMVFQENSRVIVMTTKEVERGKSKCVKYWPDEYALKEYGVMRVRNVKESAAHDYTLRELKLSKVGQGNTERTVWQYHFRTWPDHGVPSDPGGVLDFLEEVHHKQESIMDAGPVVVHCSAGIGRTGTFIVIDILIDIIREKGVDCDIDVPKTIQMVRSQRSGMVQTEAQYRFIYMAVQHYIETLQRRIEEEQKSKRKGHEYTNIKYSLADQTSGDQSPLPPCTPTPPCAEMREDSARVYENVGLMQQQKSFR

[13] = biological target: Tyrosine-protein phosphatase non-receptor type 5 (Homo sapiens, UniProt P54829); assay: PTPN5 enzyme inhibition – biochemical, fluorescence intensity, uHTS hits, confirmation (AID 602372); assay type: functional; settings: read-out: IC50_Mean
Chain of Tyrosine-protein phosphatase non-receptor type 5 (P54829 whole entry): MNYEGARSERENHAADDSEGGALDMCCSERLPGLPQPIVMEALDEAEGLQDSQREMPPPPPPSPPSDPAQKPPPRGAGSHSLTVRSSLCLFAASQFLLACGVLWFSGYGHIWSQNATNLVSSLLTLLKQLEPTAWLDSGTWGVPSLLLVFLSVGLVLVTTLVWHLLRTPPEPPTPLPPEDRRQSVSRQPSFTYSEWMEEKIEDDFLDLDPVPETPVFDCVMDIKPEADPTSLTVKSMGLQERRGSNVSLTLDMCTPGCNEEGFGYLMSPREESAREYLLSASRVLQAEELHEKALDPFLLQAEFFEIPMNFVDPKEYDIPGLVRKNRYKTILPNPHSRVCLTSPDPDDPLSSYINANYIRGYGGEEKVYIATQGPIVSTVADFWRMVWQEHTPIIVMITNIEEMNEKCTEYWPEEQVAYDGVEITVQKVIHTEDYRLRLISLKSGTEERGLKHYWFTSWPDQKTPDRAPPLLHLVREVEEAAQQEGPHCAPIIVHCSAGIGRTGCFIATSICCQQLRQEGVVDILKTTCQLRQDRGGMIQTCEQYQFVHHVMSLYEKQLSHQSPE

[14] = biological target: Dual specificity protein phosphatase 3 (Homo sapiens, UniProt P51452); assay: VHR phosphatase inhibition, dose response, selectivity assay for STEP inhibitor project, biochemical (AID 602374); assay type: functional; settings: read-out: IC50_Mean
Chain of Dual specificity protein phosphatase 3 (P51452 whole entry): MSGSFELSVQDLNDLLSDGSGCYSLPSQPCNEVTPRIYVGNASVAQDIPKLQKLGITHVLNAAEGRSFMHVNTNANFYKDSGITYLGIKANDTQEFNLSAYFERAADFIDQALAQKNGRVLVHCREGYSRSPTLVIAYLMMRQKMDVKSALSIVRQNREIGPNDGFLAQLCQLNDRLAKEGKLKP

[15] = biological target: Histone-lysine N-methyltransferase NSD2 (Homo sapiens, UniProt O96028); assay type: biochemical
Chain of Histone-lysine N-methyltransferase NSD2 (O96028 whole entry): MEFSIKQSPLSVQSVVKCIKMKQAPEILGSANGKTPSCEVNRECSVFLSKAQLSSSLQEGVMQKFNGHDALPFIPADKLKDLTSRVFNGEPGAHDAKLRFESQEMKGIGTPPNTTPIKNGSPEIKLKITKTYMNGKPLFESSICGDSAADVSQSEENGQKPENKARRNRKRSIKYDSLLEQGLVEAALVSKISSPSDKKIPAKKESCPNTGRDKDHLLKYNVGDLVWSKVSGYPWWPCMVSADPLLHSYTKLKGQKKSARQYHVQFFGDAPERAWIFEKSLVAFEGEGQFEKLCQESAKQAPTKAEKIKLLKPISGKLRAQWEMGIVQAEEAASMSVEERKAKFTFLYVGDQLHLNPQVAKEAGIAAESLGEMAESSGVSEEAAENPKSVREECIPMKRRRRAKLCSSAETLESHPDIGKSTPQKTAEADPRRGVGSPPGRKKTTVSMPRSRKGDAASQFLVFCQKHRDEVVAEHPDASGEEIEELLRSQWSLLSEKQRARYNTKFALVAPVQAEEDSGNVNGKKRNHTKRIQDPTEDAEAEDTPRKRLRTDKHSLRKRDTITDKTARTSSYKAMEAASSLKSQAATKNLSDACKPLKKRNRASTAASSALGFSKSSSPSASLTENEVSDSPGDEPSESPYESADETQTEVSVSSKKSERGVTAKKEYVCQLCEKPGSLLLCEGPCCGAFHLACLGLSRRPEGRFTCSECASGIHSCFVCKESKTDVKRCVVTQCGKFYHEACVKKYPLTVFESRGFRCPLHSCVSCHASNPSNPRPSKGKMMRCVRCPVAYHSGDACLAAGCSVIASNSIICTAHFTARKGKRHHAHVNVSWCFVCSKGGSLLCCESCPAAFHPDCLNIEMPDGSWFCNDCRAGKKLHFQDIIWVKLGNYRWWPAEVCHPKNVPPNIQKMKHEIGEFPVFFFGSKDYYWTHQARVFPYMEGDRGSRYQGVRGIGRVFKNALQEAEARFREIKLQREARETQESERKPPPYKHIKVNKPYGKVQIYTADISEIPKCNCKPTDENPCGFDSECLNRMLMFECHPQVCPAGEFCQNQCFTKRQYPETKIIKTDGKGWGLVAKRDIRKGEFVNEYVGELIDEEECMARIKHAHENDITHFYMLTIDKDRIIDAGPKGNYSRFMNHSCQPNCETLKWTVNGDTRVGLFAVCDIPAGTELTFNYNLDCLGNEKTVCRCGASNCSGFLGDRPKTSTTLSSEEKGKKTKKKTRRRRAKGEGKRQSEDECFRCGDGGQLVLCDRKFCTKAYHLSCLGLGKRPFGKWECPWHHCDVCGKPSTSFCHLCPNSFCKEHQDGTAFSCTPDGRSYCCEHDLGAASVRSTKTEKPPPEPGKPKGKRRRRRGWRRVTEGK

[16] = biological target: T2, Tyrosine-protein phosphatase non-receptor type 22 (Homo sapiens, UniProt Q9Y2R2); assay: lymphoid phosphatase LYP inhibitors – biochemical, selectivity assay for STEP inhibitor project, dose response (AID 624241); assay type: functional
T2 sequence (Q9Y2R2 whole entry): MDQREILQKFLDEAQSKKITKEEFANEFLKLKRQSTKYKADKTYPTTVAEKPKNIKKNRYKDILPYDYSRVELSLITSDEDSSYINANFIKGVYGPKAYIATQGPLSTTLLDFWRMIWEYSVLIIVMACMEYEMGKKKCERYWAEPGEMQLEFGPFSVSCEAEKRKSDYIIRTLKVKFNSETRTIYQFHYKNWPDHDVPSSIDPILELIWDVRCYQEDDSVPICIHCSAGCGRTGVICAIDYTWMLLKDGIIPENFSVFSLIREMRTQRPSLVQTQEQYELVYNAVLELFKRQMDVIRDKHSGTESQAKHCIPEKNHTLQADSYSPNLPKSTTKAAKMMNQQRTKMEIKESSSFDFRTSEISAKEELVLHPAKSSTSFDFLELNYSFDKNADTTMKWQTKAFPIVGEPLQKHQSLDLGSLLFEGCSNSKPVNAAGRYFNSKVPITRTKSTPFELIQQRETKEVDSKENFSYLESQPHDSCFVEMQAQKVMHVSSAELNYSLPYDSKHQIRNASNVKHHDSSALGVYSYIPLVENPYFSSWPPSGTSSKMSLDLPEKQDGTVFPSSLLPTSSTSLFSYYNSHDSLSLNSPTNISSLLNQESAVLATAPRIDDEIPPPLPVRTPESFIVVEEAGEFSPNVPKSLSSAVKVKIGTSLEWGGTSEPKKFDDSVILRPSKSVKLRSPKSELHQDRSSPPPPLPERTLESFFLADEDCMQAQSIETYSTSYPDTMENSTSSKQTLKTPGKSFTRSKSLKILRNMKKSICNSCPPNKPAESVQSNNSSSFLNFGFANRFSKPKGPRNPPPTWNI

[17] = biological target: Tyrosyl-DNA phosphodiesterase 2 (Homo sapiens, UniProt O95551); assay: potency against TDP2 phosphodiesterase activity – biochemical, epi absorbance, IC50, dose response (AID 743297)
Chain of Tyrosyl-DNA phosphodiesterase 2 (O95551 whole entry): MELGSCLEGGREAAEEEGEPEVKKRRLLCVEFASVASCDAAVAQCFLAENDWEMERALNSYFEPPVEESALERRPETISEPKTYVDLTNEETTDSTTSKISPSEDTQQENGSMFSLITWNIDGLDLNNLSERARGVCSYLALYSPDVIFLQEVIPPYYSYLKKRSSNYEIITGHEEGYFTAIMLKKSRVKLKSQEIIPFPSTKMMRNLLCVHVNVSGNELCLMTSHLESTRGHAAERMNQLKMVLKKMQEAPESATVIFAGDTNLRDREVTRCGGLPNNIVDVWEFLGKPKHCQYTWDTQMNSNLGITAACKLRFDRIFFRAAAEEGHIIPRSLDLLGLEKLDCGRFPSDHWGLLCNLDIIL

[18] = cells; assay type: functional, cell-based
[19] = cells; assay type: functional, cell-based; remark: listed apart in the source
[20] = biological target: Glucose-6-phosphate 1-dehydrogenase (Homo sapiens, UniProt P11413); assay: inhibition of Homo sapiens G6PD, dose series – biochemical, fluorescence, selectivity assay for P. falciparum G6PD inhibitor project, dose response (AID 504792); assay type: functional
Chain of Glucose-6-phosphate 1-dehydrogenase (P11413 whole entry): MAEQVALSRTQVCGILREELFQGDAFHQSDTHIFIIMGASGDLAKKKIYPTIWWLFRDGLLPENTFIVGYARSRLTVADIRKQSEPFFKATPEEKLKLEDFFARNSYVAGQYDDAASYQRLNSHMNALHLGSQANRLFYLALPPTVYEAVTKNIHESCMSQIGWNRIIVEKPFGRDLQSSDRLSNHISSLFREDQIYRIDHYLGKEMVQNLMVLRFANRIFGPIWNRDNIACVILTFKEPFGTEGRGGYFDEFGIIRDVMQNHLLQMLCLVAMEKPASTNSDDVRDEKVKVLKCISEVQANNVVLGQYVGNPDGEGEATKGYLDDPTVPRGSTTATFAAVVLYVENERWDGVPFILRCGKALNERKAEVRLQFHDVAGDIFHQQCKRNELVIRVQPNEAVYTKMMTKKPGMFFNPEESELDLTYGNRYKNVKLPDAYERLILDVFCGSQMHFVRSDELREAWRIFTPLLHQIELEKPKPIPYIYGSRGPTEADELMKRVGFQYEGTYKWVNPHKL

[21] = loss of viability in HepG2 cells – cell-based, CellTiter-Glo, cherry-picked, cytotoxicity control for Shn3 inhibitor project, dose response (AID 624134); assay type: functional
[22] = biological target: Caspase-7 (Homo sapiens, UniProt P55210); assay: caspase-7 enzyme inhibition, selectivity check – biochemical, DEVD-R110 fluorescence, cherry-pick, selectivity assay for caspase-6 inhibitor project, dose response (AID 743295); assay type: functional
Chain of Caspase-7 (P55210 24-198 limits assumed): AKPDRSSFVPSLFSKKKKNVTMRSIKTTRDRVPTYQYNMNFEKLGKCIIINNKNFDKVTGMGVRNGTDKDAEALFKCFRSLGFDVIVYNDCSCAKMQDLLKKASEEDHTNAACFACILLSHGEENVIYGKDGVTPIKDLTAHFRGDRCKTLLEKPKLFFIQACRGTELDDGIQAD
Chain of Caspase-7 (P55210 207-303 limits assumed): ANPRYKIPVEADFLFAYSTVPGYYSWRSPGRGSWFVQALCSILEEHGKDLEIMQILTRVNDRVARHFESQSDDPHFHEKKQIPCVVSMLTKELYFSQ

[23] = non-specific 3'UTR reporter inhibition in Clone20-Shn3RL – cell-based, Renilla luciferase, cherry-picked, counter-screen for Shn3 inhibitor project, dose response (AID 624133); assay type: functional
[24] = reduction of Shn3 3'UTR-driven luciferase in osteoblasts – cell-based, Clone20 osteoblasts, firefly luciferase, cherry-picked, dose response (AID 624132); assay type: functional;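 further: firefly luciferase luminescence from reporter carrying the Shn3 3'UTR in osteoblasts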
[25] = HIV-1 AD8 envelope cell-cell fusion blockers – cherry-pick, dose response (AID 652062); assay type: functional, cell-based;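 further: luciferase signal from cell-cell fusion driven by HIV-1 clade B AD8 Env; potency is for inhibitors of fusion seen as a drop in luminescence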
[26] = biological target: T3, Caspase-6 (Homo sapiens, UniProt P55212); assay: inhibition of CASP6 peptide cleavage – biochemical, VEID-R110 fluorescence, cherry-pick, dose response (AID 720632)
T3 sequence (P55212 whole entry): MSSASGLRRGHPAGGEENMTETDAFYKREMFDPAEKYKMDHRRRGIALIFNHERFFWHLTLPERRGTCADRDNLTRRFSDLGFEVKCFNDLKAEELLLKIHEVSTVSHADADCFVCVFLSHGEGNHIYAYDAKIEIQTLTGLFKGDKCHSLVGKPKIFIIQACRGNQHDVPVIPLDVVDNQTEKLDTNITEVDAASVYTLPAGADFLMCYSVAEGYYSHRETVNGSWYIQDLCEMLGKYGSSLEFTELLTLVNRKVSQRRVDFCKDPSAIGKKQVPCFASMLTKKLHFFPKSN

[27] = off-target signal loss in HeLa-CEM21 co-culture – HeLa F-luc CTL cells, cherry-picked, counter-screen for HIV-1 Env fusion inhibitor project, dose response (AID 652040); assay type: functional, cell-based;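 further: potency for signal decrease marking cytotoxic or nonspecific inhibition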
[28] = biological target: Caspase-8 (Homo sapiens, UniProt Q14790); assay: inhibitors of purified CASP8 protease – biochemical, Z-IETD-R110 fluorescence, cherry-picked samples, selectivity assay for caspase-6 inhibitor project, dose response (AID 743294)
Chain of Caspase-8 (Q14790 217-374 limits assumed): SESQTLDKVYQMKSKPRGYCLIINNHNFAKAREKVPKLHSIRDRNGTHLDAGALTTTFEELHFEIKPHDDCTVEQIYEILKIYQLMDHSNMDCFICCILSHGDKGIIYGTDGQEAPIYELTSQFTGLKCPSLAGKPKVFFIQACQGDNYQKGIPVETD
Chain of Caspase-8 (Q14790 385-479 limits assumed): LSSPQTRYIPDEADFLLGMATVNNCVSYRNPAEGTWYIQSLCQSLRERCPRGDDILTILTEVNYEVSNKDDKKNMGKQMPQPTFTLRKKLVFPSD

[29] = viability loss in CEM21 cells – cell-based, CellTiter-Glo luminescence, cherry-picked, cytotoxicity control for viral fusion inhibitor project, dose response (AID 652042); assay type: functional;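 further: potency for signal decrease meaning cytotoxicity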

**Q.** Which results are given for Cc1nn(CCO)c2nc(-c3cccs3)cc(C(F)(F)F)c12?
**A.** CC50 [1]: > 50 µM (active); AC50 [2]: 26.3 µM (active)

**Q.** Which AC50 [3] does the source give for COc1cccc(-c2cc3nc(-c4ccccc4)cc(O)n3n2)c1 here?
**A.** 2.35 µM (active)

**Q.** Which results are given for COCCSc1ccccc1C(=O)Nc1cc(C)on1?
**A.** IC50 [4]: > 64 µM (inactive); AC50 [5]: 1.06 µM (active)

**Q.** Which results are given for COc1ccc(-c2nn(C)c(=O)c3ccccc23)cc1NC(=O)Cn1nc(C)c2ccccc2c1=O?
**A.** IC50 [6]: > 50 µM (not active); AC50 [7]: > 70 µM (inactive); AC50 [8]: 4.07 µM (active); EC50 [9]: > 60 µM (not active); EC50 [10]: 1.46 µM (active); AC50 [11]: 6.21 µM (active)

**Q.** For CC(=O)c1ccc(S(=O)(=O)Nc2cccc(-n3cnnn3)c2)cc1, which IC50 [12] is on record?
**A.** 526 nM (active)

**Q.** And the IC50 [13]?
**A.** 17.4 µM (active)

**Q.** What about the IC50 [14] of the same compound?
**A.** 1.51 µM (active)

**Q.** And the AC50 [15]?
**A.** 12.9 µM (active)

**Q.** And the IC50 [16]?
**A.** 11.4 µM (active)

**Q.** Which IC50 [17] does the source give for Cc1cccc2cc(C=C3C(=O)NC(=O)NC3=O)c(O)nc12 here?
**A.** > 128 µM (inactive)

**Q.** What does the source list for COc1ccc(Nc2cc(C)c3c(O)cccc3n2)cc1?
**A.** CC50 [1]: 22.6 µM (active); IC50 [18]: > 29.9 µM (inactive); EC50 [9]: > 60 µM (inconclusive); EC50 [10]: 1.94 µM (active); EC50 [19]: > 29.9 µM (inactive); IC50 [20]: 56.3 µM (inactive)

**Q.** With Nc1cc2c(cc1Br)nc(O)c1ccccc12 as the compound, how does the AC50 [21] read?
**A.** 45.8 µM (active)

**Q.** And the AC50 [22]?
**A.** 2.6 µM (active)

**Q.** What about the AC50 [8] of the same compound?
**A.** 3.76 µM (active)

**Q.** What about the AC50 [23] of the same compound?
**A.** 22.9 µM (active)

**Q.** And the AC50 [24]?
**A.** 5.46 µM (active)

**Q.** And the AC50 [25]?
**A.** 21.6 µM (active)

**Q.** What about the AC50 [26] of the same compound?
**A.** 3.87 µM (active)

**Q.** What about the AC50 [27] of the same compound?
**A.** 22.9 µM (active)

**Q.** And the AC50 [28]?
**A.** 5.26 µM (active)

**Q.** And the AC50 [29]?
**A.** 9.39 µM (active)
